Assay results reported in patent US9517204B2, “Pharmaceutical composition for inhalation” (SHIONOGI & CO., LTD., priority 2011, dated 2016).
Read-outs that look alike come from different tables or passages of the source.

Legend:
[1] = Reactive oxygen species (ROS) assay, photoreactivity testing; type: physicochemical
Text: This assay was established to monitor the generation of ROS, such as singlet oxygen and superoxide, from photoirradiated chemicals, and ROS generation would be indicative of the photochemical reactivity of tested chemicals.
In contrast, 8-methoxypsoralen (MOP) is known as a phototoxic and photoreactive chemical. Although 8-MOP slightly exceeded pirfenidone in ROS generation, both chemicals were identified to be photoreactive, as shown in FIG. 3 (A). When such photoreactivity and photoirritability are taken into consideration, pirfenidone can be said to raise concerns about photostability.

[2] = patients who have taken the oral agent; cited from earlier work
Photostability testing = type: physicochemical; settings: simulated sunlight (250 W/m^2)
Description: Here, in respirable formulation of pirfenidone, both liquid and dry powder formulations can be considered in theory. Then, to clarify the photochemical properties in more detail, photostability testing was carried out. […] In general, photosensitive chemicals in a solution state are far more prone to photodegradation than solid samples due to the high permeability of light and increased mobility of photochemically excited molecules and reactive species. From this, taken together with the result shown in FIG. 3 (B), dry powder formulation, rather than liquid formulation, is preferable as a respirable formulation of pirfenidone.

[3] = Pharmacokinetics 2: transmigration of pirfenidone to tissue after single-dose administration; parameters: species or system rats; settings: rat, in vivo, po, 160 mg/kg
Description: Similarly to Example 5, single-dose administrations of pirfenidone orally and the formulation 1 by inhalation were performed in rats, and the amount of transmigration of pirfenidone to each tissue was monitored by UPLC/ESI-MS. When compared in dose (160 mg/kg) having an anti-inflammatory activity, while the amount of skin-transmigration of pirfenidone in 1 hour after administration was about 50 ng/g-tissue via inhalation (1 mg/kg), the amount via oral administration (160 mg/kg) was about 20 μg/g-tissue. From this, while the amount of medication in inhalation is 1/160 in the case of oral administration, the amount of skin transmigration in inhalation decreases to 1/400 of oral formulation. […] Thus, the respirable formulation of the present invention has an excellent effect.

skin = experiment: Phototoxic reaction in oral administration of pirfenidone (skin color, color difference meter); type: in vivo, rats; settings: for change of skin color compared to the control group: black light irradiation
Description: Hair of rats were carefully shaved by hair clipper, and pirfenidone was administered orally to the rats (160 mg/kg or 30 mg/kg), and the rats were irradiated with a black light. Colors of the skin before and after the light irradiation were evaluated with a color difference meter.

[4] = Pharmacokinetics (3): skin transmigration in repeated-dose administrations; type: in vivo
Description: Results of having monitored the amount of skin transmigration of pirfenidone in repeated-dose administrations by oral and inhalation are shown in FIG. 8. Although a temporary elevation of the pirfenidone concentration in the skin was observed by pirfenidone oral administration (30, 160 mg/kg) also in repeated-dose administrations in every 12 hours, the elevation disappeared in about 6 hours after administration. […] From this, the systemic side effect is considered to be avoidable even when the respirable formulation is used repeatedly.

[5] = Pharmacokinetics (1): plasma and tissues after oral and intratracheal administration; type: in vivo, rats; settings: for Cmax / MRT / half-life / AUC(0-inf): rat
Description: However, the possibility of risk reduction of photodermatosis is not clear. In general, since drug-induced photodermatosis appear in the skin and eyes, the specific distribution of drug molecules in the skin and/or eyes could be a key consideration for evaluating the photodermatosis risk. Then, in order to verify the photosafety of the formulation 1, a pharmacokinetic study was undertaken after intratracheal administration of the formulation 1 at a pharmacologically effective dose (1 mg/kg). Additionally, since in the oral administration, both pharmaceutically effective and phototoxic dose (160 mg/kg) and pharmaceutically non-effective and non-phototoxic dose (30 mg/kg) are known, pharmacokinetic parameters were obtained after oral administration at both doses. Concentration-time curves of pirfenidone in the plasma, skin, lung, and eyes were obtained by UPLC/ESI-MS analysis after intratracheal and oral administrations. After oral administration of pirfenidone, plasma and lung concentrations of pirfenidone immediately reached the Cmax within 5 min and these concentrations decreased steadily with half lives of ca. 0.3-0.8 h.

[6] = 30 mg/kg oral, UV +, after treatment
[7] = 30 mg/kg oral, UV +, initial value
[8] = 30 mg/kg oral, UV −, after treatment
[9] = 30 mg/kg oral, UV −, initial value
[10] = 160 mg/kg oral, UV +, after treatment
[11] = 160 mg/kg oral, UV +, initial value
[12] = 160 mg/kg oral, UV −, after treatment
[13] = 160 mg/kg oral, UV −, initial value

SMILES: COc1c2occc2cc2ccc(=O)oc12 [Formulation 8-MOP, 8-methoxypsoralen]
- ROS generation (singlet oxygen, superoxide), photoreactivity ([1]; exposed to simulated sunlight (250 W/m^2)): photoreactive

SMILES: COc1cc(O)c(C(=O)c2ccccc2)cc1S(=O)(=O)O [Sulisobenzone, sulisobenzone]
- ROS generation (singlet oxygen, superoxide), photoreactivity [1]: no ability to generate ROS

SMILES: Cc1ccc(=O)n(-c2ccccc2)c1 [pirfenidone]
- expression frequency of drug-induced photodermatosis [2]: about 60%
- degradation (Photostability testing; powder): no significant degradation
- apparent first-order degradation rate (Photostability testing; solution): 0.31 ± 0.03 h⁻¹
- concentration at 1 h [3]: ~20000 ng/g
- ΔE, evaluation of color change (skin; 30 mg/kg oral, UV +): 2.40 ± 0.20
- L* (skin; [6]): 72.26
- a* (skin; [6]): 2.81
- b* (skin; [6]): 5.72
- L* (skin; [7]): 72.90
- a* (skin; [7]): 1.27
- b* (skin; [7]): 4.14
- ΔE, evaluation of color change (skin; 30 mg/kg oral, UV −): 1.47 ± 0.27
- L* (skin; [8]): 71.56
- a* (skin; [8]): 1.54
- b* (skin; [8]): −0.36
- L* (skin; [9]): 70.16
- a* (skin; [9]): 1.19
- b* (skin; [9]): −0.18
- change of skin color compared to the control group (skin; 30 mg/kg oral): significant change was not observed
- photodermatosis (skin; 30 mg/kg orally to rat): photodermatosis was not caused
- ΔE, evaluation of color change (skin; 160 mg/kg oral, UV +): 3.97 ± 0.59
- L* (skin; [10]): 72.35
- a* (skin; [10]): 2.06
- b* (skin; [10]): 9.17
- L* (skin; [11]): 71.05
- a* (skin; [11]): 0.89
- b* (skin; [11]): 5.67
- ΔE, evaluation of color change (skin; 160 mg/kg oral, UV −): 1.69 ± 0.24
- L* (skin; [12]): 71.04
- a* (skin; [12]): −1.04
- b* (skin; [12]): 4.88
- L* (skin; [13]): 70.59
- a* (skin; [13]): 0.09
- b* (skin; [13]): 3.67
- change of skin color compared to the control group (skin; 160 mg/kg oral): Change of skin color was intentionally observed
- time after administration at which the elevation of skin concentration disappeared ([4]; oral 30, 160 mg/kg, repeated-dose every 12 hours): about 6 hours
- accumulation in skin ([4]; oral, repeated-dose administrations): did not show any accumulation trend
- AUC0→∞ ([5]; eyes, rats, 30 mg/kg, p.o.): 8.33 ± 0.39 h · μg/g tissue
- AUC0→∞ ([5]; eyes, rats, 160 mg/kg, p.o.): 58.8 ± 1.3 h · μg/g tissue
- AUC0→∞ ([5]; lung, rats, 30 mg/kg, p.o.): 6.45 ± 0.43 h · μg/g tissue
- AUC0→∞ ([5]; lung, rats, 160 mg/kg, p.o.): 52.1 ± 1.0 h · μg/g tissue
- Cmax ([5]; po, eyes, rats, 30 mg/kg): 3950 ± 300 ng/g
- MRT ([5]; po, eyes, rats, 30 mg/kg): 1.06 ± 0.13 h
- half-life ([5]; po, eyes, rats, 30 mg/kg, p.o., read-out: t1/2 (converted)): 0.668 ± 0.18 h
- Cmax ([5]; po, eyes, rats, 160 mg/kg): 26000 ± 2600 ng/g
- MRT ([5]; po, eyes, rats, 160 mg/kg): 1.93 ± 0.051 h
- half-life ([5]; po, eyes, rats, 160 mg/kg, p.o., read-out: t1/2 (converted)): 1.06 ± 0.27 h
- Cmax ([5]; po, lung, rats, 30 mg/kg): 6460 ± 690 ng/g
- MRT ([5]; po, lung, rats, 30 mg/kg): 0.787 ± 0.16 h
- half-life ([5]; po, lung, rats, 30 mg/kg, p.o., read-out: t1/2 (converted)): 0.799 ± 0.24 h
- Cmax ([5]; po, lung, rats, 160 mg/kg): 37600 ± 5700 ng/g
- MRT ([5]; po, lung, rats, 160 mg/kg): 1.32 ± 0.041 h
- half-life ([5]; po, lung, rats, 160 mg/kg, p.o., read-out: t1/2 (converted)): 0.766 ± 0.16 h
- AUC(0-inf) ([5]; po, plasma, rats, 30 mg/kg): 14100 ± 920 ng·h/mL
- Cmax ([5]; po, plasma, rats, 30 mg/kg): 19.7 ± 0.93 µg/mL
- MRT ([5]; po, plasma, rats, 30 mg/kg): 0.667 ± 0.094 h
- half-life ([5]; po, plasma, rats, 30 mg/kg, p.o., read-out: t1/2 (converted)): 0.33 ± 0.02 h
- AUC(0-inf) ([5]; po, plasma, rats, 160 mg/kg): 152000 ± 10000 ng·h/mL
- Cmax ([5]; po, plasma, rats, 160 mg/kg): 135 ± 11 µg/mL
- MRT ([5]; po, plasma, rats, 160 mg/kg): 1.05 ± 0.075 h
- half-life ([5]; po, plasma, rats, 160 mg/kg, p.o., read-out: t1/2 (converted)): 0.53 ± 0.03 h
- Cmax ([5]; po, skin, rats, 30 mg/kg): 8160 ± 470 ng/g
- MRT ([5]; po, skin, rats, 30 mg/kg): 1.14 ± 0.12 h
- half-life ([5]; po, skin, rats, 30 mg/kg, p.o., read-out: t1/2 (converted)): 1.07 ± 0.28 h
- Cmax ([5]; po, skin, rats, 160 mg/kg): 32900 ± 2600 ng/g
- MRT ([5]; po, skin, rats, 160 mg/kg): 1.7 ± 0.043 h
- half-life ([5]; po, skin, rats, 160 mg/kg, p.o., read-out: t1/2 (converted)): 1.06 ± 0.24 h
- half-life ([5]; plasma and lung, oral administration (30 and 160 mg/kg), read-out: half lives): 0.3 to 0.8 h
- half-life ([5]; skin and eye, after oral dosing, read-out: half-life of elimination phase): 0.7 to 1.1 h
- time of reaching maximum levels ([5]; skin and eye, after oral dosing): ca. 0.5 h
- AUC0→∞ ([5]; skin, rats, 30 mg/kg, p.o.): 11.5 ± 0.51 h · μg/g tissue
- AUC0→∞ ([5]; skin, rats, 160 mg/kg, p.o.): 68.0 ± 1.4 h · μg/g tissue
- ROS generation (singlet oxygen, superoxide), photoreactivity [1]: photoreactive
